Experimental data: patent EP0552417B1, “Cyclic peptides and use thereof” (priority 1991, dated 1993)
Non-standard residues stand in square brackets, D forms with d. Residues, ends and D or L forms follow the SMILES beside them. Groups on a side chain read outwards from the residue. *: point of attachment. d2Thi = N[C@H](Cc1cccs1)C(=O)O; NHPhenethyl = c1ccc(CCN*)cc1; Pip = O=C(O)[C@@H]1CCCCN1; Aze = O=C(O)[C@@H]1CCN1; X2 = c1ccc2c(c1)CCN2*; NHBn = c1ccc(CN*)cc1; For = O=C*

What was measured:
[1] = target: T1, endothelin receptor A (ETA) (Sus scrofa, UniProt Q29010); test: Assay of affinity for receptor (1): binding activity on ETA receptor, 125I-labeled endothelin-1, porcine heart membrane fraction; set-up: key: relative specific activity; reference cyclic pentapeptide ETA binding = 1.0; conditions: specific activity, taking the binding activity of control cyclo[-D-Glu-Ala-D-aIle-Leu-D-Trp-] on receptor A as 1.0, 25°C, 1 hour
T1 construct: A membrane fraction prepared from the porcine heart; from tissue; host or cells: porcine heart membrane fraction
T1 sequence (Q29010 21-427): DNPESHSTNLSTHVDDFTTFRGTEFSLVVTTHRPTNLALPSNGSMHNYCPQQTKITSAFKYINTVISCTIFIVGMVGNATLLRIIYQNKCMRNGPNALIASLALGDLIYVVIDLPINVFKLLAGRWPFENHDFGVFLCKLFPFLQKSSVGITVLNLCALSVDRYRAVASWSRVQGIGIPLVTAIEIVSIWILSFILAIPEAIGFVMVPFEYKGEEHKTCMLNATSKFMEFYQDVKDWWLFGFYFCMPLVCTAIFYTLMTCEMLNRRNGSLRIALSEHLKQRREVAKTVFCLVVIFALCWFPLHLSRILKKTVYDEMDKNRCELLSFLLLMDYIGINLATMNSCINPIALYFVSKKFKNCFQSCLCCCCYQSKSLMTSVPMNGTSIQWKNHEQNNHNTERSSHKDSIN
Summary of the method: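 Porcine heart membranes (0.15 mg/ml) incubated with 125I-endothelin-1 and test peptide for 1 h at 25°C, then centrifuged; pellet-bound radioactivity counted by gamma counter. Values given as specific activity relative to reference cyclo[-D-Glu-Ala-D-aIle-Leu-D-Trp-], set at 1.0.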

[2] = target: T2, endothelin receptor B (ETB) (Bos taurus, UniProt P28088); test: Assay of affinity for receptor (2): binding activity on ETB receptor *1, 125I-labeled endothelin-1, bovine brain membrane fraction; conditions: specific activity, taking the binding activity of the compound of Example 8 on receptor B as 100, 25°C, 1 hour
T2 construct: A membrane fraction prepared from the bovine brain; from tissue; host or cells: bovine brain membrane fraction
T2 sequence (P28088 27-441): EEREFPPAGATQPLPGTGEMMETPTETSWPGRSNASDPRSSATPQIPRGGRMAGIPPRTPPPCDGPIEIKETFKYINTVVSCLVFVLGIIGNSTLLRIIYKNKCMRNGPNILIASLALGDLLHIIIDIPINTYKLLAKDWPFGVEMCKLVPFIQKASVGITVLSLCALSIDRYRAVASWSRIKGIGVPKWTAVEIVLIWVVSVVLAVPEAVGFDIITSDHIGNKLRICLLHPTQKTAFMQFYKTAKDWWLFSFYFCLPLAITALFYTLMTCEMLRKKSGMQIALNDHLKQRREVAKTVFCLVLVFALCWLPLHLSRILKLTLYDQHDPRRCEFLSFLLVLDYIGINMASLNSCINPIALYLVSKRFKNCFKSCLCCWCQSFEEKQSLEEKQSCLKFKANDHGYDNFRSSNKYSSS
Protocol: Assay of Affinity for Receptor (2) ... Binding Activity on ETB Receptor *1
A membrane fraction prepared from the bovine brain was diluted to 0.15 mg/ml by using a buffer solution for assay, and 100 µl of the resulting suspension of the membrane fraction was poured into each assay tube to use for assay. To this suspension of the membrane fraction was added 2 µl of 5 nM ^125I labeled endothelin-1 solution. Further, 3 µl of a test peptide solution was added thereto, followed by incubation at a temperature of 25°C for 1 hour. Then, the resulting suspension was diluted with 900 µl of the buffer solution for assay cooled with ice, and thereafter separated into a supernatant and a precipitate by centrifugation at 12,000 X g for 10 minutes. Cell membranes and an endothelin receptor B (ETB) embedded therein were contained in the precipitate, and radioactive iodine-labeled endothelin bound to the receptor was also recovered in the precipitate. Accordingly, the amount of radioactive iodine-labeled endothelin bound to the endothelin receptor B (ETB) was determined by measuring the amount of radioactive iodine contained in the precipitate with a gamma-ray counter. The numerical value of ETB shown in Table 1 is the value of specific activity, taking the binding activity of the compound of Example 8 on the receptor B as 100.

ETB = ETB radio receptor assay *2, 125I-endothelin-1, guinea pig kidney crude membrane fraction; format: binding, Guinea pigs; conditions: relative activity, 37 °C, 90 minutes
Summary of the method: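 Radioligand binding used crude guinea pig kidney membranes (2.1 µg protein) with 740 Bq 125I-endothelin-1. Incubation was 90 min at 37 °C in 50 mM Tris-HCl pH 7.4, 0.1 mM PMSF, 1 mM EDTA, 0.2% BSA. Bound radioactivity was collected by GF/B filtration and measured by gamma counting.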

NK2 receptor = target: T3, NK2 receptor (Bos taurus, UniProt P05363); test: Assay of affinity for receptor (3): binding inhibiting activity on NK2 receptor, 125I-neurokinin A, membrane fraction of bovine third stomach inner wall; conditions: 125I-NKA, 25°C, 3 hours
T3 construct: The membrane fraction containing the receptor was prepared from the inner wall of the bovine third stomach; tissue Kyoto Chuo Chikusan Fukuseibutsu Oroshi Kyoukai (tissue); host or cells: inner wall of bovine third stomach, membrane fraction
T3 sequence (P05363 1-384): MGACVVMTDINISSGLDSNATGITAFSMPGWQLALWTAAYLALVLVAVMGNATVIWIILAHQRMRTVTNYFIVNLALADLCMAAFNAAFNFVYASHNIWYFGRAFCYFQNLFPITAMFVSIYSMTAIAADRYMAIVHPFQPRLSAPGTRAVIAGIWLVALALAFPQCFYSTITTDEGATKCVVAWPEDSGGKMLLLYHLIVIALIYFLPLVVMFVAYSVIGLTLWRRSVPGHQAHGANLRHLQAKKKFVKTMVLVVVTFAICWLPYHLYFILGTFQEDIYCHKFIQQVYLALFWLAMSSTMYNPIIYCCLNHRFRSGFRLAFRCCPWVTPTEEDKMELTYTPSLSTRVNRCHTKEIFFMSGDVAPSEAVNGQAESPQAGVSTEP
Protocol: Assay of Affinity for Receptor (3) ... Binding Inhibiting Activity on NK2 Receptor
The method of Paul L. M. Van Giersbergen et al. [Proc. Natl. Acad. Sci. U.S.A., 88, 1661 (1991) was modified for this assay. The membrane fraction containing the receptor was prepared from the inner wall of the bovine third stomach (purchased from Kyoto Chuo Chikusan Fukuseibutsu Oroshi Kyoukai).
The inner wall of the bovine third stomach stored at-80°C was cut to 1 cm X 1 cm or less, and disrupted in 3 liters/kg of 50 mM Tris-HCl buffer (pH 7.4) supplemented with 120 mM sodium chloride, 5 mM potassium chloride, 0.02% BSA and 5% sucrose, using a polytron homogenizer (Kinematika, Germany). Then, the disrupted product was centrifuged at 1,000 X g for 10 minutes. The supernatant was further centrifuged at 45,000 X g for 20 minutes. The precipitate was suspended in 200 ml of 50 mM Tris-HCl buffer (pH 7.4) supplemented with 300 mM potassium chloride, 10 mM ethylenediaminetetraacetic acid, 0.1 mM phenylmethylsulfonium fluoride and 0.02% BSA, and gently stirred under ice cooling for 60 minutes. The suspension was centrifuged at 45,000 X g for 20 minutes. The precipitate was washed with 200 ml of 50 mM Tris-HCl buffer (pH 7.4), and stored in the frozen state at -40°C as a receptor sample.
This sample was suspended in a reaction buffer solution [50 mM Tris-HCl buffer (pH 7.4), 0.02% bovine serum albumin and 4 mM manganese chloride] so as to give a protein concentration of 0.7 mg/ml, and 100 µl thereof was used for reaction. A test sample and ^125I-NKA (0.61 KBq, ^125I-neurokinin A, 81.4 TBq/mmol, Du Pont/NEN Research Products, U.S.A.) were also added, and reacted in 0.2 ml of the reaction buffer solution at 25°C for 3 hours. The reaction mixture was rapidly filtered through a glass filter (GF/B, Whatman, U.S.A.) using a cell harvester (Type 290PHD, Cambridge Technology Inc.) to terminate the reaction, and washed 3 times with 250 µl of 50 mM Tris-HCl buffer (pH 7.4) supplemented with 0.02% bovine serum albumin. The radioactivity left on the filter was measured with a gamma-ray counter. Results are shown in Table 1 as the binding inhibiting activity (IC50, unit: µM) on the NK2 receptor.

Row | SMILES | Binding Activity on ET Receptor (R. act.) ETA [1] | Binding Activity on ET Receptor (R. act.) ETB*1 [2] | Binding Activity on ET Receptor (R. act.) ETB*2 (ETB) | IC50 (NK2 receptor) [µM]
1 | CC(C)C[C@@H]1NC(=O)[C@@H](CC(C)C)NC(=O)[C@H](CC(=O)O)NC(=O)[C@H](CC(=O)O)NC(=O)[C@@H](CC(=O)O)NC(=O)[C@@H](Cc2c[nH]c3ccccc23)NC1=O [Example 16, Cyclo[-D-Asp-Asp-Asp-D-Leu-Leu-D-Trp-]] (cyclo(DD[dL]L[dW][dD])) | 10 | 14 | 34 | 
2 | CC(C)C[C@@H]1NC(=O)[C@@H](CC(C)C)NC(=O)[C@H](CC(=O)O)NC(=O)[C@H](Cc2cn(C=O)c3ccccc23)NC(=O)[C@@H](CC(=O)O)NC(=O)[C@@H](Cc2c[nH]c3ccccc23)NC1=O [Example 22, Cyclo[-D-Asp-Trp(For)-Asp-D-Leu-Leu-D-Trp-]] (cyclo(D[dL]L[dW][dD]W(For))) | 8.3 | 6.7 | 15 | 
3 | CC(C)C[C@@H]1NC(=O)[C@@H](CC(C)C)NC(=O)[C@H](CC(=O)O)NC(=O)[C@@H]2CCN2C(=O)[C@@H](CC(=O)O)NC(=O)[C@@H](Cc2c[nH]c3ccccc23)NC1=O [Example 25, Cyclo[-D-Asp-Azc-Asp-D-Leu-Leu-D-Trp-]] (cyclo([Aze]D[dL]L[dW][dD])) | 30 | 25 | 57 | 
4 | CC(C)C[C@@H]1NC(=O)[C@@H](CC(C)C)NC(=O)[C@H](CC(=O)O)NC(=O)[C@@H]2CCCCN2C(=O)[C@@H](CC(=O)O)NC(=O)[C@@H](Cc2c[nH]c3ccccc23)NC1=O [Example 26, Cyclo[-D-Asp-Pip-Asp-D-Leu-Leu-D-Trp-]] (cyclo(D[dL]L[dW][dD][Pip])) | 25 | 38 | 73 | 
5 | CC(C)C[C@@H]1NC(=O)[C@@H](Cc2cccs2)NC(=O)[C@H](CC(=O)O)NC(=O)[C@H](Cc2c[nH]c3ccccc23)NC(=O)[C@@H](CC(=O)O)NC(=O)[C@@H](Cc2c[nH]c3ccccc23)NC1=O [Example 50, Cyclo[-D-Asp-Trp-Asp-D-Thi-Leu-D-Trp-]] (cyclo(D[d2Thi]L[dW][dD]W)) | 4 | 350 | 57 | 
6 | CC(C)C[C@@H]1NC(=O)[C@@H](CC(C)C)NC(=O)[C@H](CC(=O)O)NC(=O)[C@H](CCC(=O)N2CCc3ccccc32)NC(=O)[C@@H](CC(=O)O)NC(=O)[C@@H](Cc2c[nH]c3ccccc23)NC1=O [Example 76, Cyclo[-D-Asp-Glu(R3)-Asp-D-Leu-Leu-D-Trp-]] (cyclo(D[dL]L[dW][dD]E(X2))) |  |  |  | 10
7 | CC(C)C[C@@H]1NC(=O)[C@@H](CC(C)C)NC(=O)[C@H](CC(=O)O)NC(=O)[C@H](CC(=O)N[C@@H](Cc2c[nH]c3ccccc23)C(=O)NCc2ccccc2)NC(=O)[C@@H](CC(=O)O)NC(=O)[C@@H](Cc2c[nH]c3ccccc23)NC1=O [Example 92, Cyclo[-D-Asp-Asp(Trp-NHBzl)-Asp-D-Leu-Leu-D-Trp-]] (cyclo(D([Trp-NHBn])D[dL]L[dW][dD])) |  |  |  | 4
8 | CC(C)C[C@@H]1NC(=O)[C@@H](CC(C)C)NC(=O)[C@H](CC(=O)O)NC(=O)[C@H](CC(=O)N[C@@H](Cc2c[nH]c3ccccc23)C(=O)NCCc2ccccc2)NC(=O)[C@@H](CC(=O)O)NC(=O)[C@@H](Cc2c[nH]c3ccccc23)NC1=O [Example 94, Cyclo[-D-Asp-Asp(Trp-NHCH2CH2Ph)-Asp-D-Leu-Leu-D-Trp-]] (cyclo(D([Trp-NHPhenethyl])D[dL]L[dW][dD])) |  |  |  | 5.8

Continued, in another order:

Row | Binding Activity on ET Receptor (R. act.) ETA [1] | Binding Activity on ET Receptor (R. act.) ETB*1 [2] | Binding Activity on ET Receptor (R. act.) ETB*2 (ETB) | SMILES | IC50 (NK2 receptor) [µM]
9 | 75 | 240 | 100 | CC(C)C[C@@H]1NC(=O)[C@@H](C(C)C)NC(=O)[C@H](CC(=O)O)NC(=O)[C@H](Cc2c[nH]c3ccccc23)NC(=O)[C@@H](CC(=O)O)NC(=O)[C@@H](Cc2c[nH]c3ccccc23)NC1=O [Example 52, Cyclo[-D-Asp-Trp-Asp-D-Val-Leu-D-Trp-]] (cyclo(D[dV]L[dW][dD]W)) | 
10 | 0.7 | 6.7 | 22 | CC(C)C[C@H]1NC(=O)[C@H](CC(=O)O)NC(=O)[C@H](C)NC(=O)[C@@H](CC(=O)O)NC(=O)[C@@H](Cc2c[nH]c3ccccc23)NC(=O)[C@H](Cc2c[nH]c3ccccc23)NC1=O [Example 58, Cyclo[-D-Asp-Ala-Asp-D-Leu-Trp-D-Trp-]] (cyclo(AD[dL]W[dW][dD])) | 
11 | 1 | 210 | 44 | CC(C)C[C@@H]1NC(=O)[C@@H](Cc2ccccc2)NC(=O)[C@H](CC(=O)O)NC(=O)[C@H](Cc2c[nH]c3ccccc23)NC(=O)[C@@H](CC(=O)O)NC(=O)[C@@H](Cc2c[nH]c3ccccc23)NC1=O [Example 60, Cyclo[-D-Asp-Trp-Asp-D-Phe-Leu-D-Trp-]] (cyclo(D[dF]L[dW][dD]W)) | 
